According to US7301020B2, “Macrolide analogs and methods for identifying same” (priority 2003, dated 2007):

Legend:
Prodan-labeled G-actin = target: T1, Prodan-labeled G-actin (Oryctolagus cuniculus, UniProt P68135); assay: Prodan-G-actin titration: binding stoichiometry and dissociation constant; parameters: species or system rabbit
T1 construct: F-actin is purified from rabbit skeletal muscle using a standard protocol; Prodan (Acrylodan) fluorophore, chemical label on the thiol of Cys374; from tissue; host or cells: rabbit skeletal muscle
Protocol: FIG. 2: (A), Stoichiometric binding of Prodan-labeled G-actin (1 μM) in G-buffer with KabC at final concentrations of in μm, a: 0.0; b: 0.1; c: 0.2; d: 0.3; e: 0.4; f: 0.5; g: 0.6; h: 0.7; i: 0.8; j: 0.9; k: 1.0; l: 1.1; m: 1.2; n: 1.5 (B), Plot of the integrated intensity in (A) against [KabC] yields a binding stoichiometry of 1:1.
Prodan-actin: Actin is labeled with the thiol probe, Acrylodan (Molecular Probes, Eugene, Oreg.) using a standard protocol (Marriott et al, 1988). Rabbit muscle G-actin is labeled with the thiol reactive, environmentally sensitive probe, Acrylodan, according to the inventor's earlier publication (Marriott et al, 1988). […]
Determination of the binding stoichiometry and dissociation constants for G-actin complexes with ABPs and macrolide drugs: The change in the quantum yield and/or emission energy of Prodan-actin is used to quantify the interaction of CapG and macrolides with G-actin. The stoichiometry of the CapG-G-actin and macrolide-G-actin complex is determined by titrating Prodan-G-actin at 1 μM with increasing amounts of CapG or the macrolide from 0.1^−10 μM. […] The equilibrium binding constant is determined by titrating a constant amount of Prodan labeled G-actin at 0.05˜0.1 μM in G- or F-buffer with incrementally increasing amounts of the macrolide or CapG over a range of 10 nM to 10 μM. […]

G-actin = target: T2, G-actin (Oryctolagus cuniculus, UniProt P68135); assay: Prodan-actin polymerization assay; assay type: biochemical, rabbit; conditions: stoichiometric binding conditions
T2 construct: F-actin is purified from rabbit skeletal muscle using a standard protocol; from tissue; host or cells: rabbit skeletal muscle
Protocol: FIG. 5: Time course for G-actin polymerization. Prodan-labeled G-actin is mixed to a final concentration of 5 μM with a pre-formed complex of G-actin-KBC at the following concentrations: a: 0 nM; b: 1 nM; c: 5 nM; d: 10 nM; e: 20 nM; f: 50 nM; g: 250 nM) and the polymerization reaction initiated by the addition of KCl and MgCl2 to 0.1 M and 2 mM respectively at 20°. Excitation at 385 nm and Emission at 465 nm.
Prodan-Actin Polymerization assay The fluorescence emission spectrum of a 5 μM solution of Prodan-labeled G-actin is recorded in G-buffer. Polymerization is initiated by adding KCl and MgCl2 to 100 mM and 2 mM respectively and the time course of the reaction is monitored continuously over a 60-minute period time by recording the emission intensity at 465 nm. In other experiments the progress of actin polymerization is determined by recording the Prodan-actin emission spectrum at defined times during the reaction.
The G-actin-KabC complex inhibits actin polymerization by capping the (+)-end of the filament. […] Adding KCl and MgCl2 to 100 mM and 2 mM respectively polymerizes this G-actin mixture and the progress of the reaction is monitored by the increase in Prodan-actin fluorescence at 465 nm (FIG. 5; Marriott et al, 1988). […]

**Q.** Kabiramide C [KabC] was tested. Which “decrease of quantum yield of Prodan-G-actin on binding” value (Prodan-labeled G-actin) did it give?
**A.** The value was roughly 3 fold.

**Q.** And the actin monomer sequestering (G-actin)?
**A.** The actin monomer sequestering was “sequester actin monomers and raise the critical concentration for actin polymerization”.
